Patent publication US20130028838A1, “F18-TYROSINE DERIVATIVES FOR IMAGING BONE METASTASES” (PIRAMAL IMAGING SA, priority 2010, published 2013)
Read-outs that look alike come from different tables or passages of the source.

How the values were obtained:
[1] = system: inflammatory muscle tissue; conditions: cited from earlier work
786-O bone metastases = assay: PET/CT imaging in 786-O/luc bone metastasis mouse model; conditions: for accumulation in bone metastases / osteolytic lesions: [F-18]-fluoride day 51, [F-18]-D-FMT day 65
Experimental: 786-O/luc cells and the MDA-MB231SA/luc cells were harvested from subconfluent cell culture flasks and resuspended in PBS (Biochrom AG) to a final concentration of 5×10^5 cells/100 μl. For intracardiac inoculations, 5-week-old female athymic nude mice (Harlan-Winkelmann GmbH, Borchen, Germany) were anesthetized with an intraperitoneal injection of 5% Rompun (Bayer HealthCare AG, Leverkusen, Germany)/10% Ketavet (Pfizer, Karlsruhe, Germany) in 0.9% NaCl at a dose of 0.1 ml/10 g body weight. Using an insulin syringe (BD Micro-Fine+Demi U-100, Becton Dickinson GmbH, Heidelberg, Germany), 5×10^5 786-O/luc cells in 100 μl PBS were inoculated into the left cardiac ventricle (i.c.) of anesthetized mice. Experiments were approved by the governmental review committee on animal care.
10 to 12 MBq [F-18]-fluoride or [F-18]-D-FMT were injected i.v. into the tail vein. 60 min after injection anesthesia was induced by isoflurane/O2 and twenty-minute micro-PET/computed tomography (CT) scans were obtained using an Inveon micro PET/CT scanner (Siemens).
51 days after the inoculation of the 786-O/luc cells into the mice, PET/CT imaging was performed with [F-18]-fluoride (FIG. 1 right side). […] The same mouse was imaged 2 weeks later (day 65) with [F-18]-D-FMT (FIG. 1 left side).

[2] = system: MDA-MB231SA bone metastases; assay: PET/CT imaging in MDA-MB231SA/luc bone metastasis mouse model; format: in vivo; conditions: PET/CT 25 days after inoculation
Excerpt: To conclude, [F-18]-D-FMT is useful for the detection of bone metastases.

786-O/luc cells = assay: in vitro uptake of [F-18]-D-FMT into 786-O/luc cells; format: cell-based, human; conditions: after 30 min
[3] = in vivo; cited from earlier work

18F-fluorodeoxyglucose [FDG, reference compound]
uptake in inflammatory muscle tissue ([1]; in vivo): taken up

N[C@H](Cc1ccc(OC[18F])cc1)C(=O)O [[F-18]-D-FMT, (R)-2-amino-3-(4[F-18]fluoromethoxy-phenyl)-propionic acid]
uptake into regenerating and remineralizing bone / detection of osteoblastic activity (786-O bone metastases): not detected | uptake into the healthy bone (786-O bone metastases; 60 min after i.v. injection): no uptake | accumulation in bone metastases / osteolytic lesions (786-O bone metastases): accumulated in all bone metastases imaged by [F-18]-fluoride | uptake in inflammatory muscle tissue ([1]; Turpentine-induced inflammation): no uptake | uptake into the bone metastases [2]: showed uptake into the bone metastases | uptake into the 786-O/luc cells (786-O/luc cells): 12.8 % applied dose/10^6 cells

[18FH] [[F-18]-fluoride, reference compound]
uptake into regenerating and remineralizing bone / detection of osteoblastic activity (786-O bone metastases): unspecific uptake | accumulation in bone metastases / osteolytic lesions (786-O bone metastases): high accumulation in multiple osteolytic lesions | blood-borne tracer carried in red cells [3]: approximately 30%
